Among the data in patent US11578073B2, “Xanthine analogs as potent anti-West Nile viral agents” (Southern Research Institute, priority 2019, dated 2023) are EC90 and CC50 values, retold here.

SMILES strings stand for the structures.

Series [1] deals with West Nile virus. The series is described as follows: anti-West Nile virus activity of xanthine analogs in HEK293 cells. It counts as cell-based. Conditions: HEK293, read-out: EC90 (effective concentration to inhibit 90% of virus).
A short description of series [2]: cell viability assay (cytotoxicity) in HEK293 cells. It counts as cell-based. Conditions: human, read-out: CC50 (50% cytotoxicity concentration).

Turning to `Cc1ccc(C)c(CN2CCN(c3nc4c(c(=O)[nH]c(=O)n4C)n3Cc3ccccc3F)CC2)c1` [Compound 1, 8-(4-(2,5-dimethylbenzyl)piperazin-1-yl)-7-(2-fluorobenzyl)-3-methyl-3,7-dihydro-1H-purine-2,6-dione], the EC90 in series [1] was determined as 1.2 µM. The CC50 in series [2] was 12 µM.
The corresponding values for `Cc1ccc(C)c(CN2CCN(c3nc4c(c(=O)n(C)c(=O)n4C)n3Cc3ccccc3F)CC2)c1` [Compound 2, 8-(4-(2,5-dimethylbenzyl)piperazin-1-yl)-7-(2-fluorobenzyl)-1,3-dimethyl-3,7-dihydro-1H-purine-2,6-dione] are 1.1 µM and more than 40 µM.
For `Cc1ccc(C)c(CN2CCN(c3nc4c([nH]3)c(=O)n(Cc3ccccc3F)c(=O)n4C)CC2)c1` [Compound 3, 8-(4-(2,5-dimethylbenzyl)piperazin-1-yl)-1-(2-fluorobenzyl)-3-methyl-3,7-dihydro-1H-purine-2,6-dione], in that order: more than 10 µM and more than 40 µM.
The corresponding values for `Cn1c(=O)n(O)c(=O)c2c1nc(N1CCN(Cc3ccc(C(C)(C)C)cc3)CC1)n2Cc1ccccc1F` [Compound 4, 8-(4-(4-(tert-butyl)benzyl)piperazin-1-yl)-7-(2-fluorobenzyl)-1-hydroxy-3-methyl-3,7-dihydro-1H-purine-2,6-dione] are more than 30 µM and more than 40 µM.
Take `Cn1c(=O)n(CO)c(=O)c2c1nc(N1CCN(Cc3ccc(C(C)(C)C)cc3)CC1)n2Cc1ccccc1F` [Compound 5, 8-(4-(4-(tert-butyl)benzyl)piperazin-1-yl)-7-(2-fluorobenzyl)-1-(hydroxymethyl)-3-methyl-3,7-dihydro-1H-purine-2,6-dione]: the EC90 in series [1] came to 1.2 µM. Moreover, the CC50 in series [2] was found to be 16.8 µM.
For `Cn1c(=O)n(CCO)c(=O)c2c1nc(N1CCN(Cc3ccc(C(C)(C)C)cc3)CC1)n2Cc1ccccc1F` [Compound 6, 8-(4-(4-(tert-butyl)benzyl)piperazin-1-yl)-7-(2-fluorobenzyl)-1-(2-hydroxyethyl)-3-methyl-3,7-dihydro-1H-purine-2,6-dione], in that order: 6 µM and 12 µM.
With `Cc1ccc(C)c(CN2CCN(c3nc4c([nH]3)c(=O)[nH]c(=O)n4C)CC2)c1` [Compound 7, 8-(4-(2,5-Dimethylbenzyl)piperazin-1-yl)-3-methyl-3,7-dihydro-1H-purine-2,6-dione], the EC90 in series [1] is more than 10 µM.
For the compound `CCn1c(N2CCN(Cc3cc(C)ccc3C)CC2)nc2c1c(=O)[nH]c(=O)n2C` [Compound 8, 8-(4-(2,5-Dimethylbenzyl)piperazin-1-yl)-7-ethyl-3-methyl-3,7-dihydro-1H-purine-2,6-dione], in series [1], the EC90 was more than 10 µM. Besides, in series [2], the CC50 is more than 40 µM.
Consider `Cc1ccc(C)c(CN2CCN(c3nc4c(c(=O)[nH]c(=O)n4C)n3Cc3cccnc3)CC2)c1` [Compound 10, 8-(4-(2,5-Dimethylbenzyl)piperazin-1-yl)-3-methyl-7-(pyridin-3-ylmethyl)-3,7-dihydro-1H-purine-2,6-dione], for which the EC90 in series [1] was more than 10 µM.
Same read-out and setting: as for `Cn1c(=O)[nH]c(=O)c2c1nc(N1CCNCC1)n2Cc1ccccc1F` [Compound 21, 7-(2-Fluorobenzyl)-3-methyl-8-(piperazin-1-yl)-3,7-dihydro-1H-purine-2,6-dione], the figure is more than 10 µM; as for `Cn1c(=O)[nH]c(=O)c2c1nc(N1CCN(C3CC3)CC1)n2Cc1ccccc1F` [Compound 23, 8-(4-Cyclopropylpiperazin-1-yl)-7-(2-fluorobenzyl)-3-methyl-3,7-dihydro-1H-purine-2,6-dione], more than 10 µM.
With `Cn1c(=O)[nH]c(=O)c2c1nc(N1CCN(C(C)(C)C)CC1)n2Cc1ccccc1F` [Compound 24, 8-(4-(tert-Butyl)piperazin-1-yl)-7-(2-fluorobenzyl)-3-methyl-3,7-dihydro-1H-purine-2,6-dione], the EC90 in series [1] was more than 10 µM.
Still for that read-out and setting: next, `Cn1c(=O)[nH]c(=O)c2c1nc(N1CCN(C3CCC3)CC1)n2Cc1ccccc1F` [Compound 25, 8-(4-Cyclobutylpiperazin-1-yl)-7-(2-fluorobenzyl)-3-methyl-3,7-dihydro-1H-purine-2,6-dione]: more than 10 µM; `Cn1c(=O)[nH]c(=O)c2c1nc(N1CCN(c3ccc(C(C)(C)C)cc3)CC1)n2Cc1ccccc1F` [Compound 29, 8-(4-(4-(tert-Butyl)phenyl)piperazin-1-yl)-7-(2-fluorobenzyl)-3-methyl-3,7-dihydro-1H-purine-2,6-dione]: more than 10 µM; `Cn1c(=O)[nH]c(=O)c2c1nc(N1CCN(c3ccc(Cl)cc3F)CC1)n2Cc1ccccc1F` [Compound 31, 8-(4-(4-Chloro-2-fluorophenyl)piperazin-1-yl)-7-(2-fluorobenzyl)-3-methyl-3,7-dihydro-1H-purine-2,6-dione]: more than 10 µM.
Still for that read-out and setting: next, `Cn1c(=O)[nH]c(=O)c2c1nc(N1CCN(c3ccc(C#N)cn3)CC1)n2Cc1ccccc1F` [Compound 32, 6-(4-(7-(2-Fluorobenzyl)-3-methyl-2,6-dioxo-2,3,6,7-tetrahydro-1H-purin-8-yl)piperazin-1-yl)nicotinonitrile]: more than 10 µM.
As for `Cn1c(=O)[nH]c(=O)c2c1nc(N1CCN(c3ccccn3)CC1)n2Cc1ccccc1F` [Compound 33, 7-(2-Fluorobenzyl)-3-methyl-8-(4-(pyridin-2-yl)piperazin-1-yl)-3,7-dihydro-1H-purine-2,6-dione], in series [1], the EC90 is more than 10 µM.
As to `Cn1c(=O)[nH]c(=O)c2c1nc(N1CCN(C(=O)c3ccc(C(C)(C)C)nc3)CC1)n2Cc1ccccc1F` [Compound 45, 8-(4-(6-(tert-Butyl)nicotinoyl)piperazin-1-yl)-7-(2-fluorobenzyl)-3-methyl-3,7-dihydro-1H-purine-2,6-dione], in series [1], the EC90 is more than 10 µM.
Take `Cc1ccc(C)c(CCN2CCN(c3nc4c(c(=O)[nH]c(=O)n4C)n3Cc3ccccc3F)CC2)c1` [Compound 46, 8-(4-(2,5-Dimethylphenethyl)piperazin-1-yl)-7-(2-fluorobenzyl)-3-methyl-3,7-dihydro-1H-purine-2,6-dione]: in series [1], the EC90 came to 10.2 µM.
In the case of `Cn1c(=O)[nH]c(=O)c2c1nc(N1CCN(CCc3ccc(C(C)(C)C)cc3)CC1)n2Cc1ccccc1F` [Compound 47, 8-(4-(4-(tert-Butyl)phenethyl)piperazin-1-yl)-7-(2-fluorobenzyl)-3-methyl-3,7-dihydro-1H-purine-2,6-dione], the EC90 in series [1] stood at 13.6 µM.
On the same count and under the same terms, as for `Cc1ccc(C)c(CC(=O)N2CCN(c3nc4c(c(=O)[nH]c(=O)n4C)n3Cc3ccccc3F)CC2)c1` [Compound 48, 8-(4-(2-(2,5-Dimethylphenyl)acetyl)piperazin-1-yl)-7-(2-fluorobenzyl)-3-methyl-3,7-dihydro-1H-purine-2,6-dione], the figure is more than 10 µM.
Still for that read-out and setting: next, `Cn1c(=O)[nH]c(=O)c2c1nc(N1CCN(CC(=O)c3ccc(C(C)(C)C)cc3)CC1)n2Cc1ccccc1F` [Compound 49, 8-(4-(2-(4-(tert-butyl)phenyl)-2-oxoethyl)piperazin-1-yl)-7-(2-fluorobenzyl)-3-methyl-3,7-dihydro-1H-purine-2,6-dione]: more than 10 µM; `Cn1c(=O)[nH]c(=O)c2c1nc(N1CCC(F)(F)C1)n2Cc1ccccc1F` [Compound 51, 8-(3,3-Difluoropyrrolidin-1-yl)-7-(2-fluorobenzyl)-3-methyl-3,7-dihydro-1H-purine-2,6-dione]: more than 10 µM; `Cn1c(=O)[nH]c(=O)c2c1nc(N1CCC(F)(F)CC1)n2Cc1ccccc1F` [Compound 53, 8-(4,4-Difluoropiperidin-1-yl)-7-(2-fluorobenzyl)-3-methyl-3,7-dihydro-1H-purine-2,6-dione]: more than 10 µM.
Same read-out and setting: as for `Cn1c(=O)[nH]c(=O)c2c1nc(N1CCC(C(C)(C)C)CC1)n2Cc1ccccc1F` [Compound 54, 8-(4-(tert-Butyl)piperidin-1-yl)-7-(2-fluorobenzyl)-3-methyl-3,7-dihydro-1H-purine-2,6-dione], the figure is 1.5 µM; as for `Cn1c(=O)[nH]c(=O)c2c1nc(N1CCC(C(F)(F)F)CC1)n2Cc1ccccc1F` [Compound 55, 7-(2-Fluorobenzyl)-3-methyl-8-(4-(trifluoromethyl)piperidin-1-yl)-3,7-dihydro-1H-purine-2,6-dione], more than 10 µM.
As for `Cn1c(=O)[nH]c(=O)c2c1nc(N1CCC(c3ccc(C#N)cc3)CC1)n2Cc1ccccc1F` [Compound 58, 4-(1-(7-(2-Fluorobenzyl)-3-methyl-2,6-dioxo-2,3,6,7-tetrahydro-1H-purin-8-yl)piperidin-4-yl)benzonitrile], in series [1], the EC90 was more than 10 µM.
Still for that read-out and setting: as for `Cn1c(=O)[nH]c(=O)c2c1nc(N1CCC(Cc3ccc(C#N)cc3)CC1)n2Cc1ccccc1F` [Compound 59, 4-((1-(7-(2-Fluorobenzyl)-3-methyl-2,6-dioxo-2,3,6,7-tetrahydro-1H-purin-8-yl)piperidin-4-yl)methyl)benzonitrile], the figure is more than 10 µM; as for `Cn1c(=O)[nH]c(=O)c2c1nc(N1CCC(Cc3ccc(F)cc3)CC1)n2Cc1ccccc1F` [Compound 60, 7-(2-Fluorobenzyl)-8-(4-(4-fluorobenzyl)piperidin-1-yl)-3-methyl-3,7-dihydro-1H-purine-2,6-dione], more than 10 µM; as for `Cn1c(=O)[nH]c(=O)c2c1nc(N1CCC(Cc3cc(F)cc(F)c3)CC1)n2Cc1ccccc1F` [Compound 61, 8-(4-(3,5-Difluorobenzyl)piperidin-1-yl)-7-(2-fluorobenzyl)-3-methyl-3,7-dihydro-1H-purine-2,6-dione], more than 10 µM.
For the compound `Cn1c(=O)[nH]c(=O)c2c1nc(N1CCC(Cc3cccnc3)CC1)n2Cc1ccccc1F` [Compound 62, 7-(2-Fluorobenzyl)-3-methyl-8-(4-(pyridin-3-ylmethyl)piperidin-1-yl)-3,7-dihydro-1H-purine-2,6-dione], in series [1], the EC90 was 12.4 µM.
Same read-out and setting: as for `Cc1ccc(C)c(CNCCNc2nc3c(c(=O)[nH]c(=O)n3C)n2Cc2ccccc2F)c1` [Compound 63, 8-((2-((2,5-dimethylbenzyl)amino)ethyl)amino)-7-(2-fluorobenzyl)-3-methyl-3,7-dihydro-1H-purine-2,6-dione], the figure is more than 10 µM.
